# Measurements from patent US20220281848A1, “PYRAZOLE-SUBSTITUTED PYRROLIDINONES AS HERBICIDES” (FMC Corporation, priority 2019, published 2022).
# Tested on: plants
# Assay: Test D pre-emergence, other plants of Tables D1 and D3
# Type: in vivo
# Details: for damage to plant, ALOMY / damage to plant, AVEFA / damage to plant, BEAVA / damage to plant, BROTE / damage to plant, BRSNN / damage to plant, CHEAL / damage to plant, GALAP / damage to plant, HORVW / damage to plant, KCHSC / damage to plant, LOLPE / damage to plant, POAAN / damage to plant, POLCO / damage to plant, SINAR / damage to plant, STEME / damage to plant, VERPE: pre-emergence, 100=total damage, 0=no damage
# How it was run: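 Damage was rated visually from 0 (none) to 100 (total), at 20 DAA for pre-emergence and 15 d for post-emergence. Plants grew from safener-treated seed in a glasshouse at 24/18° C. or 20/16° C. day/night, 65% humidity, watered twice daily.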
structure (smiles),measurement,setting,value
CN1CC(c2cc(C(F)(F)F)n(C)n2)C(C(=O)Nc2ccccc2F)C1=O (racemic) [Compound 9],"damage to plant (100=total damage to plant; 0=no damage to plant), SORVU","SORVU, preemergent, rate 500, 20 DAA",0
same,"damage to plant, ALOMY","rate 15, 20 DAA",0
same,"damage to plant, AVEFA","rate 15, 20 DAA",0
same,"damage to plant, BEAVA","rate 15, 20 DAA",0
same,"damage to plant, BROTE","rate 15, 20 DAA",0
same,"damage to plant, BRSNN","rate 15, 20 DAA",0
same,"damage to plant, CHEAL","rate 15, 20 DAA",0
same,"damage to plant, GALAP","rate 15, 20 DAA",0
same,"damage to plant, HORVW","rate 15, 20 DAA",0
same,"damage to plant, KCHSC","rate 15, 20 DAA",0
same,"damage to plant, LOLPE","rate 15, 20 DAA",0
same,"damage to plant, POAAN","rate 15, 20 DAA",0
same,"damage to plant, POLCO","rate 15, 20 DAA",0
same,"damage to plant, SINAR","rate 15, 20 DAA",0
same,"damage to plant, STEME","rate 15, 20 DAA",0
same,"damage to plant, VERPE","rate 15, 20 DAA",0
same,"damage to plant, ALOMY","rate 30, 20 DAA",0
same,"damage to plant, AVEFA","rate 30, 20 DAA",0
same,"damage to plant, BEAVA","rate 30, 20 DAA",0
same,"damage to plant, BROTE","rate 30, 20 DAA",0
same,"damage to plant, BRSNN","rate 30, 20 DAA",0
same,"damage to plant, CHEAL","rate 30, 20 DAA",0
same,"damage to plant, GALAP","rate 30, 20 DAA",0
same,"damage to plant, HORVW","rate 30, 20 DAA",0
same,"damage to plant, KCHSC","rate 30, 20 DAA",0
same,"damage to plant, LOLPE","rate 30, 20 DAA",0
same,"damage to plant, POAAN","rate 30, 20 DAA",0
same,"damage to plant, POLCO","rate 30, 20 DAA",0
same,"damage to plant, SINAR","rate 30, 20 DAA",0
same,"damage to plant, STEME","rate 30, 20 DAA",0
same,"damage to plant, VERPE","rate 30, 20 DAA",0
same,"damage to plant, ALOMY","rate 60, 20 DAA",0
same,"damage to plant, AVEFA","rate 60, 20 DAA",0
same,"damage to plant, BEAVA","rate 60, 20 DAA",0
same,"damage to plant, BROTE","rate 60, 20 DAA",0
same,"damage to plant, BRSNN","rate 60, 20 DAA",0
same,"damage to plant, CHEAL","rate 60, 20 DAA",0
same,"damage to plant, GALAP","rate 60, 20 DAA",0
same,"damage to plant, HORVW","rate 60, 20 DAA",0
same,"damage to plant, KCHSC","rate 60, 20 DAA",0
same,"damage to plant, LOLPE","rate 60, 20 DAA",0
same,"damage to plant, POAAN","rate 60, 20 DAA",0
same,"damage to plant, POLCO","rate 60, 20 DAA",0
same,"damage to plant, SINAR","rate 60, 20 DAA",0
same,"damage to plant, STEME","rate 60, 20 DAA",0
same,"damage to plant, VERPE","rate 60, 20 DAA",0
same,"damage to plant, ALOMY","rate 130, 20 DAA",0
same,"damage to plant, AVEFA","rate 130, 20 DAA",0
same,"damage to plant, BEAVA","rate 130, 20 DAA",0
same,"damage to plant, BROTE","rate 130, 20 DAA",0
same,"damage to plant, BRSNN","rate 130, 20 DAA",0
same,"damage to plant, CHEAL","rate 130, 20 DAA",0
same,"damage to plant, GALAP","rate 130, 20 DAA",0
same,"damage to plant, HORVW","rate 130, 20 DAA",0
same,"damage to plant, KCHSC","rate 130, 20 DAA",0
same,"damage to plant, LOLPE","rate 130, 20 DAA",0
same,"damage to plant, POAAN","rate 130, 20 DAA",10
same,"damage to plant, POLCO","rate 130, 20 DAA",0
same,"damage to plant, SINAR","rate 130, 20 DAA",0
same,"damage to plant, STEME","rate 130, 20 DAA",0
same,"damage to plant, VERPE","rate 130, 20 DAA",0
same,"damage to plant, ALOMY","rate 250, 20 DAA",0
same,"damage to plant, AVEFA","rate 250, 20 DAA",10
same,"damage to plant, BEAVA","rate 250, 20 DAA",0
same,"damage to plant, BROTE","rate 250, 20 DAA",0
same,"damage to plant, BRSNN","rate 250, 20 DAA",0
same,"damage to plant, CHEAL","rate 250, 20 DAA",0
same,"damage to plant, GALAP","rate 250, 20 DAA",0
same,"damage to plant, HORVW","rate 250, 20 DAA",0
same,"damage to plant, KCHSC","rate 250, 20 DAA",0
same,"damage to plant, LOLPE","rate 250, 20 DAA",30
same,"damage to plant, POAAN","rate 250, 20 DAA",10
same,"damage to plant, POLCO","rate 250, 20 DAA",0
same,"damage to plant, SINAR","rate 250, 20 DAA",0
same,"damage to plant, STEME","rate 250, 20 DAA",10
same,"damage to plant, VERPE","rate 250, 20 DAA",0
same,"damage to plant, ALOMY","rate 500, 20 DAA",0
same,"damage to plant, AVEFA","rate 500, 20 DAA",20
same,"damage to plant, BEAVA","rate 500, 20 DAA",0
same,"damage to plant, BROTE","rate 500, 20 DAA",0
same,"damage to plant, BRSNN","rate 500, 20 DAA",0
same,"damage to plant, CHEAL","rate 500, 20 DAA",0
same,"damage to plant, GALAP","rate 500, 20 DAA",10
same,"damage to plant, HORVW","rate 500, 20 DAA",0
same,"damage to plant, KCHSC","rate 500, 20 DAA",0
same,"damage to plant, LOLPE","rate 500, 20 DAA",20
same,"damage to plant, POAAN","rate 500, 20 DAA",50
same,"damage to plant, POLCO","rate 500, 20 DAA",0
same,"damage to plant, SINAR","rate 500, 20 DAA",0
same,"damage to plant, STEME","rate 500, 20 DAA",80
same,"damage to plant, VERPE","rate 500, 20 DAA",0
